{"source": "patent US10711004B2", "about": "(Genentech, Inc., priority 2018, dated 2020)", "data": [{"biological_target": "human TRPA1 channel (Homo sapiens (Human), UniProt O75762)", "sequence (O75762 whole entry)": "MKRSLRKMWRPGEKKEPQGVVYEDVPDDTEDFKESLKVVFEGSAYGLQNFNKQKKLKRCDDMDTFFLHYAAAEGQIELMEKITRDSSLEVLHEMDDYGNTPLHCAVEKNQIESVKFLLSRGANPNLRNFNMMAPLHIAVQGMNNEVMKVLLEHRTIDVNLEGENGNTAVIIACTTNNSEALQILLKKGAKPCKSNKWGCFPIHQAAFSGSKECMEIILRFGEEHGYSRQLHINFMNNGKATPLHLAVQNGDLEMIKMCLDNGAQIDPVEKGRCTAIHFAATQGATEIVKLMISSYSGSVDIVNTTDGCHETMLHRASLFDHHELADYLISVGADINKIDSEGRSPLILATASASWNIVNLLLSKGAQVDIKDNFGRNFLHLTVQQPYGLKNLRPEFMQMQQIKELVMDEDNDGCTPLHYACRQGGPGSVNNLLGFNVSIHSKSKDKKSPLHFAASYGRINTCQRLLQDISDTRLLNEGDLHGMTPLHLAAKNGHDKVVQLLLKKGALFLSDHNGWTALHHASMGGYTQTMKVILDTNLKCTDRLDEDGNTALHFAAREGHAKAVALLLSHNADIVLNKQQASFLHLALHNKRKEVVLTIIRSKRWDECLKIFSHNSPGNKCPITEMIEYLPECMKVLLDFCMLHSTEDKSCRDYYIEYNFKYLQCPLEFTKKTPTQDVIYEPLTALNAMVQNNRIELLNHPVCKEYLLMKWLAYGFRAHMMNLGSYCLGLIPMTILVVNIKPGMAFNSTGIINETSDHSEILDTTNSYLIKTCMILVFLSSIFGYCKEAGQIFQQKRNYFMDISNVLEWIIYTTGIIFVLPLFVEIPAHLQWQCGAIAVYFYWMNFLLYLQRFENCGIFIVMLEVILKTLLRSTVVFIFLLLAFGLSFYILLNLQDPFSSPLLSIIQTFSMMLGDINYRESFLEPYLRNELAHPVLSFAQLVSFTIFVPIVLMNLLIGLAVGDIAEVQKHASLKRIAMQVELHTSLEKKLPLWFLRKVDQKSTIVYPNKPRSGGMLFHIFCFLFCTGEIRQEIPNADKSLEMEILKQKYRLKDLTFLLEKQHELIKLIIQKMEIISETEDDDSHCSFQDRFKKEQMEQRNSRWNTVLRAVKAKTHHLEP", "experiment": "hTRPA1 CHO Ca2+ FLIPR Tetra assay, block of cinnamaldehyde induced calcium influx", "assay_type": "cell-based", "conditions": "CHO cells expressing TRPA1; compounds incubated 10 minutes at room temperature before cinnamaldehyde agonist; Hill coefficient fixed to 1.5", "method": "(§1) CHO cells expressing TRPA1 were plated into 384-well plates, incubated overnight at 37° C., and loaded with BD calcium indicator dye for 1 hr at 37° C. followed by 15 minutes at room temperature. The assay buffer was Hank's Balanced Salt Solution (HBSS) containing 20 mM HEPES (pH readjusted to 7.4) along with 0.02% BSA.\n(§2) Following dye load and plate cool down, compounds were added to the cells using FLIPR Tetra. Plates were then incubated with compounds for 10 minutes or 90 minutes at room temperature prior to adding agonist. Following this incubation, about an EC50 concentration of cinnamaldehyde (75) was added to active the channels and block of cinnamaldehyde induced calcium influx was measured.\n(§3) Fixing the Hill coefficient will generally reduce variability of the IC50 determination. The IC50 results were individually examined to make sure the MIN and MAX points were set correctly prior to validation of the results.", "units": {"IC50": "nM"}, "values": [{"molecule": "Cn1cnc2ncn(Cc3nc([C@@H]4[C@H]5Cc6ccccc6[C@H]54)no3)c(=O)c21", "note": "(stereo in doubt) [Example Compound 2, 7-methyl-1-[[3-[rac-(1R,1aR,6aS)-1,1a,6,6a-tetrahydrocyclopropa[a]inden-1-yl]-1,2,4-oxadiazol-5-yl]methyl]purin-6-one]", "IC50": 277}, {"molecule": "Cn1cnc2ncn(Cc3nc([C@H]4[C@@H]5Cc6ccccc6[C@@H]54)no3)c(=O)c21", "note": "(stereo in doubt) [Example Compound 3, 7-methyl-1-[[3-[rac-(1S,1aS,6aR)-1,1a,6,6a-tetrahydrocyclopropa[a]inden-1-yl]-1,2,4-oxadiazol-5-yl]methyl]purin-6-one]", "IC50": 588}, {"molecule": "Cc1ccnc2ncn(Cc3nc([C@@H]4[C@H]5Cc6ccccc6[C@H]54)no3)c(=O)c12", "note": "(stereo in doubt) [Example Compound 14, 5-methyl-3-[[3-[rac-(1S,1aS,6aR)-1,1a,6,6a-tetrahydrocyclopropa[a]inden-1-yl]-1,2,4-oxadiazol-5-yl]methyl]pyrido[2,3-d]pyrimidin-4-one]", "IC50": 119}, {"molecule": "Cc1ccnc2ncn(Cc3nc([C@H]4[C@@H]5Cc6ccccc6[C@@H]54)no3)c(=O)c12", "note": "(stereo in doubt) [Example Compound 15, 5-methyl-3-[[3-[rac-(1R,1 aR,6aS)-1,1a,6,6a-tetrahydrocyclopropa[a]inden-1-yl]-1,2,4-oxadiazol-5-yl]methyl]pyrido[2,3-d]pyrimidin-4-one]", "IC50": 305}, {"molecule": "Cc1cncc2ncn(Cc3nc([C@@H]4[C@H]5Cc6ccccc6[C@H]54)no3)c(=O)c12", "note": "(stereo in doubt) [Example Compound 19, 5-methyl-3-[[3-[rac-(1R,1 aR,6aS)-1,1a,6,6a-tetrahydrocyclopropa[a]inden-1-yl]-1,2,4-oxadiazol-5-yl]methyl]pyrido[3,4-d]pyrimidin-4-one]", "IC50": 29.9}, {"molecule": "Cc1cncc2ncn(Cc3nc([C@H]4[C@@H]5Cc6ccccc6[C@@H]54)no3)c(=O)c12", "note": "(stereo in doubt) [Example Compound 20, 5-methyl-3-[[3-[rac-(1S,1aS,6aR)-1,1a,6,6a-tetrahydrocyclopropa[a]inden-1-yl]-1,2,4-oxadiazol-5-yl]methyl]pyrido[3,4-d]pyrimidin-4-one]", "IC50": 94.3}]}, {"biological_target": "human TRPA1 channel (Homo sapiens (Human), UniProt O75762)", "experiment": "hTRPA1 CHO Ca2+ FLIPR Tetra assay, block of cinnamaldehyde induced calcium influx", "assay_type": "cell-based", "conditions": "read-out: hTRPA1 IC50 (10 min); CHO cells expressing TRPA1; compounds incubated 10 minutes at room temperature before cinnamaldehyde agonist; Hill coefficient fixed to 1.5", "method": "as §1, §2, §3", "units": {"IC50": "nM"}, "values": [{"molecule": "Cn1cnc2ncn(Cc3nc([C@H]4[C@@H]5CN(c6ccccc6Cl)C[C@@H]54)no3)c(=O)c21", "IC50": 77.3}, {"molecule": "Cn1cnc2ncn(Cc3nc([C@H]4[C@@H]5CN(c6ccc(Cl)c(Cl)c6)C[C@@H]54)no3)c(=O)c21", "IC50": 64.3}, {"molecule": "Cn1cnc2ncn(Cc3nc([C@H]4[C@@H]5CN(c6cc(Cl)ccc6F)C[C@@H]54)no3)c(=O)c21", "IC50": 12.5}, {"molecule": "Cn1cnc2ncn(Cc3nc([C@H]4[C@@H]5CN(c6cc(F)cc(Cl)c6)C[C@@H]54)no3)c(=O)c21", "IC50": 20.5}, {"molecule": "Cn1cnc2ncn(Cc3nc([C@H]4[C@@H]5CN(c6ccc(F)c(Cl)c6)C[C@@H]54)no3)c(=O)c21", "IC50": 9.78}, {"molecule": "Cn1cnc2ncn(Cc3nc([C@H]4[C@@H]5CN(c6cccc(C(F)F)c6)C[C@@H]54)no3)c(=O)c21", "IC50": 64.4}, {"molecule": "Cn1cnc2ncn(Cc3nc([C@H]4[C@@H]5CN(c6cccc(SC(F)(F)F)c6)C[C@@H]54)no3)c(=O)c21", "IC50": 300}, {"molecule": "CC(=O)c1cccc(N2C[C@@H]3[C@H](C2)[C@H]3c2noc(Cn3cnc4ncn(C)c4c3=O)n2)c1", "IC50": 295}, {"molecule": "Cn1cnc2ncn(Cc3nc([C@H]4[C@@H]5CN(c6ccc7c(c6)CCC7)C[C@@H]54)no3)c(=O)c21", "IC50": 111}, {"molecule": "Cn1cnc2ncn(Cc3nc([C@H]4[C@@H]5CN(c6cccc(C7CC7)c6)C[C@@H]54)no3)c(=O)c21", "IC50": 112}, {"molecule": "O=c1c2ccncc2ncn1Cc1nc([C@H]2C[C@](F)(c3ccc(Cl)cc3)C2)no1", "IC50": 190}, {"molecule": "O=c1c2cccnc2ncn1Cc1nc([C@H]2C[C@H](c3cccc(Cl)c3)C2)no1", "IC50": 49}, {"molecule": "O=c1c2cccnc2ncn1Cc1nc([C@H]2C[C@](F)(c3ccc(Cl)cc3)C2)no1", "IC50": 20.2}, {"molecule": "O=c1c2cccnc2ncn1Cc1nc([C@H]2C[C@](O)(c3cccc(Cl)c3)C2)no1", "IC50": 281}, {"molecule": "Cc1ccnc2ncn(Cc3nc([C@H]4C[C@H](c5cccc(Cl)c5)C4)no3)c(=O)c12", "IC50": 12.2}, {"molecule": "Cc1ccnc2ncn(Cc3nc([C@H]4C[C@](O)(c5cccc(Cl)c5)C4)no3)c(=O)c12", "IC50": 57.8}, {"molecule": "COc1ccc([C@H]2C[C@H](c3noc(Cn4cnc5nccc(C)c5c4=O)n3)C2)cc1", "IC50": 38.7}, {"molecule": "Cc1ccnc2ncn(Cc3nc([C@H]4C[C@H](c5ccc(OC(F)F)cc5)C4)no3)c(=O)c12", "IC50": 51.3}, {"molecule": "Cc1ccnc2ncn(Cc3nc([C@H]4C[C@H](c5ccc(OC(F)(F)F)cc5)C4)no3)c(=O)c12", "IC50": 63.8}, {"molecule": "Cc1ccnc2ncn(Cc3nc([C@H]4[C@@H]5CN(c6ccccc6)C[C@@H]54)no3)c(=O)c12", "IC50": 39}, {"molecule": "Cc1cncc2ncn(Cc3nc([C@H]4[C@@H]5CN(c6ccccc6)C[C@@H]54)no3)c(=O)c12", "IC50": 14.6}, {"molecule": "Cc1cncc2ncn(Cc3nc([C@H]4[C@@H]5CN(c6cccc(Cl)c6)C[C@@H]54)no3)c(=O)c12", "IC50": 81.5}, {"molecule": "Cn1cnc2ncn(Cc3nc([C@H]4[C@@H]5CN(c6ccc7c(cnn7C)c6)C[C@@H]54)no3)c(=O)c21", "IC50": 141}, {"molecule": "Cn1cnc2ncn(Cc3nc([C@H]4[C@@H]5CN(c6ccc7ccncc7c6)C[C@@H]54)no3)c(=O)c21", "IC50": 69.2}, {"molecule": "Cn1cnc2ncn(Cc3nc([C@H]4[C@@H]5CN(c6ccc7ncccc7c6)C[C@@H]54)no3)c(=O)c21", "IC50": 166}, {"molecule": "Cn1cnc2ncn(Cc3nc([C@H]4[C@@H]5CN(c6cnc7ccccc7c6)C[C@@H]54)no3)c(=O)c21", "IC50": 169}, {"molecule": "Cn1cnc2ncn(Cc3nc([C@H]4[C@@H]5CN(c6cncc(Cl)c6)C[C@@H]54)no3)c(=O)c21", "IC50": 287}, {"molecule": "Cn1cnc2ncn(Cc3nc([C@@H]4CC[C@@H](c5ccccc5)C4)no3)c(=O)c21", "IC50": 149}, {"molecule": "Cn1cnc2ncn(Cc3nc([C@H]4C[C@H](c5ccc(OC(F)F)cc5)C4)no3)c(=O)c21", "IC50": 142}, {"molecule": "Cn1cnc2ncn(Cc3nc([C@H]4C[C@H](c5ccc(OC(F)(F)F)cc5)C4)no3)c(=O)c21", "IC50": 196}, {"molecule": "1-((3-((1R,5S,6r)-3-(3-fluorophenyl)-3-azabicyclo[3.1.0]hexan-6-yl)-1,2,4-oxadiazol-5-yl)methyl)-7-methyl-1,7-dihydro-6H-purin-6-one-2-d [Example Compound 89]", "IC50": 31.1}, {"molecule": "1-((3-((1r,3r)-3-((3-chlorophenyl)difluoromethyl) cyclobutyl)-1,2,4-oxadiazol-5-yl)methyl)-7-methyl-1,7-dihydro-6H-purin-6-one [Example Compound 81]", "IC50": 143}, {"molecule": "Cn1cnc2ncn(Cc3nc([C@H]4C[C@H](C(F)(F)c5cccc(F)c5)C4)no3)c(=O)c21", "note": "(stereo in doubt) [Example Compound 248, 1-[[3-[trans-3-[difluoro-(3-fluorophenyl)methyl]cyclobutyl]-1,2,4-oxadiazol-5-yl]methyl]-7-methyl-purin-6-one]", "IC50": 11.1}, {"molecule": "Cn1cnc2ncn(Cc3nc([C@H]4[C@@H]5CN(c6cccc(OC(F)(F)F)c6)C[C@@H]54)no3)c(=O)c21", "note": "[Example Compound 4, 7-methyl-1-[[3-[(1R,5S,6r)-3-(3-trifluoromethoxy)phenyl-3-azabicyclo[3.1.0]hexan-6-yl]-1,2,4-oxadiazol-5-yl]methyl]purin-6-one]", "IC50": 119}, {"molecule": "Cn1cnc2ncn(Cc3nc([C@H]4[C@@H]5CN(c6ccc(OC(F)(F)F)cc6)C[C@@H]54)no3)c(=O)c21", "note": "[Example Compound 6, 7-methyl-1-[[3-[(1R,5S,6 r)-3-[4-(trifluoromethoxy)phenyl]-3-azabicyclo[3.1.0]hexan-6-yl]-1,2,4-oxadiazol-5-yl]methyl]purin-6-one]", "IC50": 42.4}, {"molecule": "Cn1cnc2ncn(Cc3nc([C@H]4[C@@H]5CN(c6ccc(F)cc6)C[C@@H]54)no3)c(=O)c21", "note": "[Example Compound 7, 7-methyl-1-[[3-[(1R,5S,6 r)-3-(4-fluorophenyl)-3-azabicyclo[3.1.0]hexan-6-yl]-1,2,4-oxadiazol-5-yl]methyl]purin-6-one]", "IC50": 31}, {"molecule": "Cn1cnc2ncn(Cc3nc([C@H]4[C@@H]5CN(c6cccc(OC(F)F)c6)C[C@@H]54)no3)c(=O)c21", "note": "[Example Compound 8, 7-methyl-1-[[3-[(1R,5S,6 r)-3-[3-(difluoromethoxy)phenyl]-3-azabicyclo[3.1.0]hexan-6-yl]-1,2,4-oxadiazol-5-yl]methyl] purin-6-one]", "IC50": 105}, {"molecule": "Cc1cncc2ncn(Cc3nc([C@H]4C[C@](O)(c5ccc(Cl)cc5)C4)no3)c(=O)c12", "note": "[Example Compound 9, 3-((3-((1s,3s)-3-(4-chlorophenyl)-3-hydroxycyclobutyl)-1,2,4-oxadiazol-5-yl)methyl)-5-methylpyrido[3,4-d]pyrimidin-4(3H)-one]", "IC50": 30.9}, {"molecule": "Cc1ccnc2ncn(Cc3nc([C@H]4C[C@](O)(c5ccc(Cl)cc5)C4)no3)c(=O)c12", "note": "[Example Compound 10, 3-((3-((1s,3s)-3-(4-chlorophenyl)-3-hydroxycyclobutyl)-1,2,4-oxadiazol-5-yl)methyl)-5-methylpyrido[2,3-d]pyrimidin-4(3H)-one]", "IC50": 141}, {"molecule": "O=c1c2cccnc2ncn1Cc1nc([C@H]2C[C@](O)(c3ccc(Cl)cc3)C2)no1", "note": "[Example Compound 11, 3-((3-((1s,3s)-3-(4-chlorophenyl)-3-hydroxycyclobutyl)-1,2,4-oxadiazol-5-yl)methyl)pyrido[2,3-d]pyrimidin-4(3H)-one]", "IC50": 261}]}, {"biological_target": "human TRPA1 channel (Homo sapiens (Human), UniProt O75762)", "experiment": "hTRPA1 CHO Ca2+ FLIPR Tetra assay, block of cinnamaldehyde induced calcium influx", "assay_type": "cell-based", "conditions": "read-out: hTRPA1 IC50 (90 min); CHO cells expressing TRPA1; compounds incubated 90 minutes at room temperature before cinnamaldehyde agonist; Hill coefficient fixed to 1.5", "method": "as §1, §2, §3", "units": {"IC50": "nM"}, "values": [{"molecule": "Cn1cnc2ncn(Cc3nc([C@H]4C[C@H](C(F)(F)c5cccc(F)c5)C4)no3)c(=O)c21", "note": "(stereo in doubt) [Example Compound 248, 1-[[3-[trans-3-[difluoro-(3-fluorophenyl)methyl]cyclobutyl]-1,2,4-oxadiazol-5-yl]methyl]-7-methyl-purin-6-one]", "IC50": 5.5}]}]}
